Tests used:
morphine analgesia = test: Increase in analgesia of morphine, Tail Flick Test (Experiment 1); assay type: in vivo, rats; details: for percentage variation of latency of pain sensation / M (10-90) ± SE, mean percentage variation of latency: compound 10 mg/kg i.p. + morphine 2 mg/kg; for M (10-90) ± SE, mean percentage variation of latency: mean 10-90 min; for Power ratio with respect to morphine alone: rat, in vivo
Procedure: Experiment No: 1 Increase in analgesia of analgesic-narcotic drugs in rats by the Tail Flick Test
The method is that described by Harris et al. (J. Pharmacol. Exp. Ther. 143 (1964) 141-148).
Male rats are used having a weight of about 150-200 g which have not fasted. A point on the tail is chosen and irradiated by a heat source (75° C.) and the time (in seconds) for which the animal remains without moving its tail is measured.
A maximum period of time of 8 seconds under the heat source is chosen, after which the animal is, in any case, removed to avoid tissue damage. The measurement is effected before (controls) and after treatment with the drugs.
The percentage variation is calculated for each individual animal by the following formula: [formula] The measurements were carried out 10, 20, 30, 45, 60 and 90 minutes after treatment with the analgesics.

[1] = system: CCK-8 induced contraction of guinea pig gall bladder; test: Anti-CCK activity on gall bladder strips in vitro; details: CCK-8 10 ng/ml
Procedure: ANTI-CCK ACTIVITY ON GUINEA PIG GALL BALDDERS IN VITRO
A longitudinal strip of guinea pig gall bladder was placed in a bath of isolated members in the presence of Krebs at a temperature of 32° C. with continuous oxygenation with an oxygen-CO2 mixture (95-5V/V).
The isometric contractions were detected by means of a force transducer and recorded.
The gall bladder was made to contract with the use of a 10 ng/ml concentration of CCK-8; the antagonistic activity of the compounds of the invention on the contracting effect of the CCK was determined with the use of different concentrations and the ED 50 value, that is the concentration in μg/ml of a compound which could antagonise 50% of the contracting effect of the CCK, was determined.

[2] = system: activity of analgesic drugs; test: Hot-plate test, potentiation of analgesic drugs (Experiment 2); assay type: in vivo, rats
Procedure: Experiment No. 2: Hot-plate test
The method is that described by Eddy et al. (J. Pharmac. Exp. Ther. 107, 385 (1953)).
Groups of five male rats having a weight of about 150 g, and which have not fasted, are used.
The animals are placed on a metal plate on the bottom of a transparent cylinder, which is heated to 55°±1° C. by an azeotropic boiling mixture (acetone-ethyl formate 1:1).
The reaction time is defined as the interval which passes between the moment at which the animal is placed on the hot-plate and the moment at which it either licks its feet or tries to jump out of the cylinder. The control reaction time is measured 10 and 5 minutes before administration of the drugs and 10, 20, 30, 45, 60 and 90 minutes afterwards. The animals are left on the plate for a maximum period of 30 seconds.
The response to the administration of the product is considered positive if at least a doubling of the normal reaction time is seen. The results obtained are given in Tables 2a and 2b which record the groups treated, the doses administered and the stay times on the plate expressed as the number of positive responses over the number treated.

Compound	percentage variation of latency of pain sensation (morphine analgesia; 10')	percentage variation of latency of pain sensation (morphine analgesia; 20')	percentage variation of latency of pain sensation (morphine analgesia; 30')	percentage variation of latency of pain sensation (morphine analgesia; 45')	percentage variation of latency of pain sensation (morphine analgesia; 60')	percentage variation of latency of pain sensation (morphine analgesia; 90')	M (10-90) ± SE, mean percentage variation of latency (morphine analgesia)	Power ratio with respect to morphine alone (morphine analgesia)	ED50 (concentration antagonising 50% of contracting effect of CCK-8) [1]	also measured
CCCCCN(CCCCC)C(=O)C(CCC(=O)O)NC(=O)c1ccc(C)c(C)c1 (centres unmarked) [Compound C-55]	89.3 ± 16%	86.2 ± 12%	94.4%	100 ± 0%	100 ± 0%	81.7 ± 13%	88.6 ± 12%	2.97	0.5 µg/mL	–
CCc1ccc(C(=O)NC(CCC(=O)O)C(=O)NC2CCCCC2)cc1 (centres unmarked) [Compound C-48]	42.1 ± 14%	59.5 ± 8%	50.1 ± 21%	78.4%	43.7 ± 30%	44.9 ± 18%	53.1 ± 14%	1.78	119.1 µg/mL	–
CCCN(CCC)C(=O)C(CCC(=O)O)NC(=O)c1ccc(I)cc1 (centres unmarked) [Compound C-18]	48.9 ± 31.0%	65.9 ± 24.0%	80.1 ± 9.0%	59.1 ± 20.0%	33.5 ± 20.0%	81.4 ± 12.0%	58.1%	1.95	60.3 µg/mL	–
CCCN(CCC)C(=O)C(CCC(=O)O)NC(=O)c1ccc(C)cc1C (centres unmarked) [Compound C-32]	21.8 ± 5%	58.6 ± 17%	83.5 ± 10%	89.8 ± 8%	78.4 ± 13%	52.2 ± 22%	64.0 ± 25%	2.15	> 300 µg/mL	–
CCCN(CCC)C(=O)C(CCC(=O)O)NC(=O)c1cc(I)c(I)c(I)c1 (centres unmarked) [Compound C-19]	3.6 ± 12.0%	42.8 ± 19.0%	58.4 ± 21.0%	66.1%	57.1 ± 18.0%	35.6 ± 20.0%	43.9 ± 22.7%	1.47	> 200 µg/mL	–
CCCCCCN(CCCCCC)C(=O)C(CCC(=O)O)NC(=O)c1ccc(Cl)c(Cl)c1 (centres unmarked) [Compound C-8]	67.4 ± 20.5%	74.1 ± 15.8%	80.0 ± 12.9%	85.9 ± 14.1%	87.1%	60.4 ± 17.3%	75.8 ± 10.6%	2.54	0.93 µg/mL	–
CCCN(CCC)C(=O)C(CCC(=O)O)NC(=O)c1ccc(Cl)c(Cl)c1 (centres unmarked) [Compound C-5]	34.5 ± 17.4%	21.4 ± 16.0%	59.5 ± 21.1%	84.7%	63.9 ± 18.5%	40.1 ± 23.9%	50.7 ± 23.0%	1.70	4.2 µg/mL	–
CCCN(CCC)C(=O)C(CCC(=O)O)NC(=O)c1cc(F)cc(F)c1 (centres unmarked) [Compound C-13]	24.6 ± 8.9%	70.0 ± 18.5%	75.5 ± 15.0%	56.6%	62.3 ± 17.3%	59.2 ± 25.1%	58.0 ± 18.0%	1.95	> 200 µg/mL	–
CCCN(CCC)C(=O)C(CCC(=O)O)NC(=O)c1ccc(C)cc1 (centres unmarked) [Compound C-29]	48.7 ± 20%	75.5%	73.6 ± 11%	70.0 ± 19%	47.3 ± 23%	6.0 ± 14%	53.5%	1.80	262 µg/mL	–
CCCCC1C(=O)N(c2ccccc2)N(c2ccc(O)cc2)C1=O (centres unmarked) [Oxyphenylbutazone, reference compound]	–	–	–	–	–	–	–	–	–	TOTAL positives ([2]; oxyphenylbutazone 50 mg/kg i.p. alone): 7 x/30; positive responses over number treated ([2]; oxyphenylbutazone 50 mg/kg i.p. alone, 10'): 2/5; positive responses over number treated ([2]; oxyphenylbutazone 50 mg/kg i.p. alone, 20'): 1/5; positive responses over number treated ([2]; oxyphenylbutazone 50 mg/kg i.p. alone, 30'): 2/5; positive responses over number treated ([2]; oxyphenylbutazone 50 mg/kg i.p. alone, 45'): 2/5; positive responses over number treated ([2]; oxyphenylbutazone 50 mg/kg i.p. alone, 60'): 0/5; positive responses over number treated ([2]; oxyphenylbutazone 50 mg/kg i.p. alone, 90'): 0/5
CCC(=O)C(CC(C)N(C)C)(c1ccccc1)c1ccccc1 (centres unmarked) [Methadone, reference compound]	–	–	–	–	–	–	–	–	–	TOTAL positives ([2]; methadone 1 mg/kg i.p. alone): 8 X/30; positive responses over number treated ([2]; methadone 1 mg/kg i.p. alone, 10'): 1/5; positive responses over number treated ([2]; methadone 1 mg/kg i.p. alone, 20'): 2/5; positive responses over number treated ([2]; methadone 1 mg/kg i.p. alone, 30'): 1/5; positive responses over number treated ([2]; methadone 1 mg/kg i.p. alone, 45'): 2/5; positive responses over number treated ([2]; methadone 1 mg/kg i.p. alone, 60'): 1/5; positive responses over number treated ([2]; methadone 1 mg/kg i.p. alone, 90'): 1/5
CC(=O)Oc1ccccc1C(=O)O [Acetyl Salicylic Acid, reference compound]	–	–	–	–	–	–	–	–	–	TOTAL positives ([2]; acetyl salicylic acid 100 mg/kg i.p. alone): 8 x/30; positive responses over number treated ([2]; acetyl salicylic acid 100 mg/kg i.p. alone, 10'): 1/5; positive responses over number treated ([2]; acetyl salicylic acid 100 mg/kg i.p. alone, 20'): 2/5; positive responses over number treated ([2]; acetyl salicylic acid 100 mg/kg i.p. alone, 30'): 2/5; positive responses over number treated ([2]; acetyl salicylic acid 100 mg/kg i.p. alone, 45'): 2/5; positive responses over number treated ([2]; acetyl salicylic acid 100 mg/kg i.p. alone, 60'): 0/5; positive responses over number treated ([2]; acetyl salicylic acid 100 mg/kg i.p. alone, 90'): 1/5
Propoxyphene [reference compound]	–	–	–	–	–	–	–	–	–	TOTAL positives ([2]; propoxyphene 10 mg/kg i.p. alone): 8 X/30; positive responses over number treated ([2]; propoxyphene 10 mg/kg i.p. alone, 10'): 1/5; positive responses over number treated ([2]; propoxyphene 10 mg/kg i.p. alone, 20'): 2/5; positive responses over number treated ([2]; propoxyphene 10 mg/kg i.p. alone, 30'): 2/5; positive responses over number treated ([2]; propoxyphene 10 mg/kg i.p. alone, 45'): 2/5; positive responses over number treated ([2]; propoxyphene 10 mg/kg i.p. alone, 60'): 1/5; positive responses over number treated ([2]; propoxyphene 10 mg/kg i.p. alone, 90'): 0/5; TOTAL positives ([2]; propoxyphene 15 mg/kg i.p. alone): 12 x/30; positive responses over number treated ([2]; propoxyphene 15 mg/kg i.p. alone, 10'): 2/5; positive responses over number treated ([2]; propoxyphene 15 mg/kg i.p. alone, 20'): 2/5; positive responses over number treated ([2]; propoxyphene 15 mg/kg i.p. alone, 30'): 3/5; positive responses over number treated ([2]; propoxyphene 15 mg/kg i.p. alone, 45'): 3/5; positive responses over number treated ([2]; propoxyphene 15 mg/kg i.p. alone, 60'): 1/5; positive responses over number treated ([2]; propoxyphene 15 mg/kg i.p. alone, 90'): 3/5

Reference: US4791215A, “Derivatives of glutamic acid and aspartic acid” (priority 1984, dated 1988)
